In PubChem BioAssay (NCI):
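The compound was tested at five concentrations on cells cultured in 96-well plates, with a 48-hour exposure period. TGI: total growth inhibition.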

Key:
Assay in all cases: DTP human tumour cell line panel, 48 h
M14 melanoma = tested on: M14 melanoma
HT29 colon = tested on: HT29 colon
SF-268 CNS = tested on: SF-268 CNS
HOP-92 NSCLC = tested on: HOP-92 NSCLC
HL-60(TB) leukemia = tested on: HL-60(TB) leukemia
HCC-2998 colon = tested on: HCC-2998 colon
SK-MEL-2 melanoma = tested on: SK-MEL-2 melanoma
NCI-H460 lung = tested on: NCI-H460 lung
NCI-H23 lung = tested on: NCI-H23 lung
A498 renal = tested on: A498 renal
ACHN renal = tested on: ACHN renal
786-0 renal = tested on: 786-0 renal
SR leukemia = tested on: SR leukemia
COLO 205 colon = tested on: COLO 205 colon
SF-295 CNS = tested on: SF-295 CNS
RPMI-8226 leukemia = tested on: RPMI-8226 leukemia
EKVX NSCLC = tested on: EKVX NSCLC
UO-31 renal = tested on: UO-31 renal
SW-620 colon = tested on: SW-620 colon
LOX IMVI melanoma = tested on: LOX IMVI melanoma
DU-145 prostate = tested on: DU-145 prostate
UACC-62 melanoma = tested on: UACC-62 melanoma
BT-549 breast = tested on: BT-549 breast
HS 578T breast = tested on: HS 578T breast
NCI-H226 lung = tested on: NCI-H226 lung
TK-10 renal = tested on: TK-10 renal
OVCAR-8 ovarian = tested on: OVCAR-8 ovarian
RXF 393 renal = tested on: RXF 393 renal
SK-MEL-28 melanoma = tested on: SK-MEL-28 melanoma
NCI-H522 lung = tested on: NCI-H522 lung
OVCAR-4 ovarian = tested on: OVCAR-4 ovarian
MALME-3M melanoma = tested on: MALME-3M melanoma
MOLT-4 leukemia = tested on: MOLT-4 leukemia
OVCAR-3 ovarian = tested on: OVCAR-3 ovarian
OVCAR-5 ovarian = tested on: OVCAR-5 ovarian
UACC-257 melanoma = tested on: UACC-257 melanoma
CCRF-CEM leukemia = tested on: CCRF-CEM leukemia
CAKI-1 renal = tested on: CAKI-1 renal
HCT-15 colon = tested on: HCT-15 colon
KM12 colon = tested on: KM12 colon
T-47D breast = tested on: T-47D breast
U251 CNS = tested on: U251 CNS
PC-3 prostate = tested on: PC-3 prostate
HCT-116 colon = tested on: HCT-116 colon
MCF7 breast = tested on: MCF7 breast
SNB-75 CNS = tested on: SNB-75 CNS
SF-539 CNS = tested on: SF-539 CNS
MDA-MB-231 breast = tested on: MDA-MB-231 breast
SK-OV-3 ovarian = tested on: SK-OV-3 ovarian
SNB-19 CNS = tested on: SNB-19 CNS
K-562 leukemia = tested on: K-562 leukemia
SN12C renal = tested on: SN12C renal
MDA-MB-435 = tested on: MDA-MB-435
A549 NSCLC = tested on: A549 NSCLC
SK-MEL-5 melanoma = tested on: SK-MEL-5 melanoma
IGROV1 ovarian = tested on: IGROV1 ovarian
HOP-62 NSCLC = tested on: HOP-62 NSCLC
NCI/ADR-RES ovarian = tested on: NCI/ADR-RES ovarian
MDA-N = tested on: MDA-N

In the case of O=c1cc(NNc2ccccc2)[nH]c(=S)[nH]1, the TGI (M14 melanoma) is reported as over 100 µM, the TGI (HT29 colon) is reported as over 100 µM and the TGI (SF-268 CNS) is reported as over 100 µM. The TGI (HOP-92 NSCLC) was over 100 µM, the TGI (HL-60(TB) leukemia) was 62.6 µM and the TGI (HCC-2998 colon) was 50.5 µM. It also gave a TGI (SK-MEL-2 melanoma) of 61.3 µM, a TGI (NCI-H460 lung) of over 100 µM and a TGI (NCI-H23 lung) of over 100 µM. The TGI (A498 renal) was over 100 µM, the TGI (ACHN renal) was over 100 µM and the TGI (786-0 renal) was over 100 µM. For the same compound, the TGI (SR leukemia) was 70.3 µM, the TGI (COLO 205 colon) was over 100 µM and the TGI (SF-295 CNS) was over 100 µM. For the same compound, the TGI (RPMI-8226 leukemia) was 58.6 µM, the TGI (EKVX NSCLC) was over 100 µM and the TGI (UO-31 renal) was over 100 µM. For the same compound, the TGI (SW-620 colon) was 49.5 µM, the TGI (LOX IMVI melanoma) was 31.3 µM and the TGI (DU-145 prostate) was over 100 µM. For the same compound, the TGI (UACC-62 melanoma) was over 100 µM, the TGI (BT-549 breast) was over 100 µM and the TGI (HS 578T breast) was over 100 µM. The TGI (NCI-H226 lung) was over 100 µM, the TGI (TK-10 renal) was 90.6 µM and the TGI (OVCAR-8 ovarian) was over 100 µM. For the same compound, the TGI (RXF 393 renal) was over 100 µM, the TGI (SK-MEL-28 melanoma) was over 100 µM and the TGI (NCI-H522 lung) was 35.7 µM. It also gave a TGI (OVCAR-4 ovarian) of over 100 µM, a TGI (MALME-3M melanoma) of over 100 µM and a TGI (MOLT-4 leukemia) of 91.7 µM. It also gave a TGI (OVCAR-3 ovarian) of 31.4 µM, a TGI (OVCAR-5 ovarian) of over 100 µM and a TGI (UACC-257 melanoma) of over 100 µM. It also gave a TGI (CCRF-CEM leukemia) of 88.6 µM, a TGI (CAKI-1 renal) of 35.9 µM and a TGI (HCT-15 colon) of 42.1 µM. The TGI (KM12 colon) was over 100 µM, the TGI (T-47D breast) was over 100 µM and the TGI (U251 CNS) was over 100 µM. For the same compound, the TGI (PC-3 prostate) was over 100 µM, the TGI (HCT-116 colon) was 53.9 µM and the TGI (MCF7 breast) was over 100 µM. The TGI (SNB-75 CNS) was over 100 µM, the TGI (SF-539 CNS) was over 100 µM and the TGI (MDA-MB-231 breast) was 65.2 µM. The TGI (SK-OV-3 ovarian) was over 100 µM, the TGI (SNB-19 CNS) was over 100 µM and the TGI (K-562 leukemia) was 80.2 µM. The TGI (SN12C renal) was over 100 µM, the TGI (MDA-MB-435) was over 100 µM and the TGI (A549 NSCLC) was over 100 µM. The TGI (SK-MEL-5 melanoma) was over 100 µM, the TGI (IGROV1 ovarian) was over 100 µM and the TGI (HOP-62 NSCLC) was over 100 µM. It also gave a TGI (NCI/ADR-RES ovarian) of over 100 µM and a TGI (MDA-N) of over 100 µM.

In the case of CCSCCC(N)C(=O)O (stereo unspecified), the TGI (M14 melanoma) is reported as over 100 µM, the TGI (HT29 colon) is reported as over 100 µM and the TGI (SF-268 CNS) is reported as over 100 µM. For the same compound, the TGI (HOP-92 NSCLC) was over 100 µM, the TGI (HL-60(TB) leukemia) was over 100 µM and the TGI (HCC-2998 colon) was over 100 µM. It also gave a TGI (SK-MEL-2 melanoma) of over 100 µM, a TGI (NCI-H460 lung) of over 100 µM and a TGI (NCI-H23 lung) of over 100 µM. The TGI (A498 renal) was over 100 µM, the TGI (ACHN renal) was over 100 µM and the TGI (786-0 renal) was over 100 µM. For the same compound, the TGI (SR leukemia) was over 100 µM, the TGI (COLO 205 colon) was over 100 µM and the TGI (SF-295 CNS) was over 100 µM. It also gave a TGI (RPMI-8226 leukemia) of over 100 µM, a TGI (EKVX NSCLC) of over 100 µM and a TGI (UO-31 renal) of over 100 µM. For the same compound, the TGI (SW-620 colon) was over 100 µM, the TGI (LOX IMVI melanoma) was over 100 µM and the TGI (DU-145 prostate) was over 100 µM. For the same compound, the TGI (UACC-62 melanoma) was over 100 µM, the TGI (BT-549 breast) was over 100 µM and the TGI (HS 578T breast) was over 100 µM. The TGI (NCI-H226 lung) was over 100 µM, the TGI (TK-10 renal) was over 100 µM and the TGI (OVCAR-8 ovarian) was over 100 µM. The TGI (RXF 393 renal) was over 100 µM, the TGI (SK-MEL-28 melanoma) was over 100 µM and the TGI (NCI-H522 lung) was over 100 µM. It also gave a TGI (OVCAR-4 ovarian) of over 100 µM, a TGI (MALME-3M melanoma) of over 100 µM and a TGI (MOLT-4 leukemia) of over 100 µM. The TGI (OVCAR-3 ovarian) was over 100 µM, the TGI (OVCAR-5 ovarian) was over 100 µM and the TGI (UACC-257 melanoma) was over 100 µM. It also gave a TGI (HCT-15 colon) of over 100 µM, a TGI (KM12 colon) of over 100 µM and a TGI (T-47D breast) of over 100 µM. It also gave a TGI (U251 CNS) of over 100 µM, a TGI (PC-3 prostate) of over 100 µM and a TGI (HCT-116 colon) of over 100 µM. It also gave a TGI (MCF7 breast) of over 100 µM, a TGI (SNB-75 CNS) of over 100 µM and a TGI (SF-539 CNS) of over 100 µM. It also gave a TGI (MDA-MB-231 breast) of over 100 µM, a TGI (SK-OV-3 ovarian) of over 100 µM and a TGI (SNB-19 CNS) of over 100 µM. The TGI (K-562 leukemia) was over 100 µM, the TGI (SN12C renal) was over 100 µM and the TGI (MDA-MB-435) was over 100 µM. The TGI (A549 NSCLC) was over 100 µM, the TGI (SK-MEL-5 melanoma) was over 100 µM and the TGI (IGROV1 ovarian) was over 100 µM. The TGI (HOP-62 NSCLC) was over 100 µM, the TGI (NCI/ADR-RES ovarian) was over 100 µM and the TGI (MDA-N) was over 100 µM.
